Test results as given in ChEMBL document CHEMBL5096158, “HIV latency reversal agents: A potential path for functional cure?” (Eur J Med Chem, 2021).
pEC50: −log10 of the molar value. Each block holds one compound with its values, some of them ahead of it.

Tests used:
[1] = tested on: Human immunodeficiency virus 1; assay: Reactivation of HIV-1 latency infected in GFP-fused human J-Lat 10.6 cells assessed as increase in GFP expression incubated for 48 hrs by flow cytometry; format: functional, organism-based; conditions: Human immunodeficiency virus 1, J-Lat 10.6, 48 h
[2] = Cytotoxicity against human J-Lat 10.6 cells assessed as reduction in cell viability incubated for 72 hrs by CCK-8 assay; format: toxicity, cell-based
[3] = tested on: Human immunodeficiency virus 1; assay: Reactivation of HIV-1 latency infected in GFP-fused human J-Lat C11 cells assessed as increase in GFP expression at 1 to 100000 nM incubated for 48 hrs by flow cytometry; format: functional; conditions: dose 1-100000 nM
[4] = Cytotoxicity against human J-Lat C11 cells assessed as reduction in cell viability incubated for 72 hrs by CCK-8 assay; format: toxicity, cell-based
[5] = tested on: Human immunodeficiency virus 1; assay: Reactivation of HIV-1 latency infected in GFP-fused human J-Lat C11 cells assessed as increase in GFP expression incubated for 48 hrs by flow cytometry; format: functional, organism-based; conditions: Human immunodeficiency virus 1, J-Lat C11, 48 h
[6] = tested on: Human immunodeficiency virus 1; assay: Reactivation of HIV-1 latency infected in GFP-fused human J-Lat 10.6 cells assessed as increase in GFP expression at 1 to 100000 nM incubated for 48 hrs by flow cytometry; format: functional; conditions: dose 1-100000 nM
[7] = Inhibition of HIV-1 latency infected in human ACH-2 cells assessed as fold increase in HIV production by measuring p24 level incubated for 48 hrs in presence of 5-azacytidine by ELISA; format: functional, Human immunodeficiency virus 1, ACH-2 cell line
[8] = Inhibition of HIV-1 latency infected in human ACH-2 cells assessed as fold increase in HIV production by measuring p24 level incubated for 48 hrs in presence of vorinostat by ELISA; format: functional, Human immunodeficiency virus 1, ACH-2 cell line
[9] = tested on: Human immunodeficiency virus 1; assay: Reversal of HIV-1 latency infected in GFP-fused human J-Lat C11 cells assessed as increase in GFP expression at 100 uM incubated for 72 hrs by flow cytometry; format: functional
[10] = Inhibition of HIV-1 latency infected in human ACH-2 cells assessed as fold increase in HIV production by measuring p24 level incubated for 48 hrs in presence of BIX01294 by ELISA; format: functional, Human immunodeficiency virus 1, ACH-2 cell line
[11] = target: Histone deacetylase 4 (Homo sapiens, UniProt P56524); assay: Inhibition of recombinant human HDAC4 expressed in baculovirus expression system using KI-104 as substrate incubated for 3 hrs by fluorescence-based assay
Sequence of Histone deacetylase 4 (P56524 whole entry): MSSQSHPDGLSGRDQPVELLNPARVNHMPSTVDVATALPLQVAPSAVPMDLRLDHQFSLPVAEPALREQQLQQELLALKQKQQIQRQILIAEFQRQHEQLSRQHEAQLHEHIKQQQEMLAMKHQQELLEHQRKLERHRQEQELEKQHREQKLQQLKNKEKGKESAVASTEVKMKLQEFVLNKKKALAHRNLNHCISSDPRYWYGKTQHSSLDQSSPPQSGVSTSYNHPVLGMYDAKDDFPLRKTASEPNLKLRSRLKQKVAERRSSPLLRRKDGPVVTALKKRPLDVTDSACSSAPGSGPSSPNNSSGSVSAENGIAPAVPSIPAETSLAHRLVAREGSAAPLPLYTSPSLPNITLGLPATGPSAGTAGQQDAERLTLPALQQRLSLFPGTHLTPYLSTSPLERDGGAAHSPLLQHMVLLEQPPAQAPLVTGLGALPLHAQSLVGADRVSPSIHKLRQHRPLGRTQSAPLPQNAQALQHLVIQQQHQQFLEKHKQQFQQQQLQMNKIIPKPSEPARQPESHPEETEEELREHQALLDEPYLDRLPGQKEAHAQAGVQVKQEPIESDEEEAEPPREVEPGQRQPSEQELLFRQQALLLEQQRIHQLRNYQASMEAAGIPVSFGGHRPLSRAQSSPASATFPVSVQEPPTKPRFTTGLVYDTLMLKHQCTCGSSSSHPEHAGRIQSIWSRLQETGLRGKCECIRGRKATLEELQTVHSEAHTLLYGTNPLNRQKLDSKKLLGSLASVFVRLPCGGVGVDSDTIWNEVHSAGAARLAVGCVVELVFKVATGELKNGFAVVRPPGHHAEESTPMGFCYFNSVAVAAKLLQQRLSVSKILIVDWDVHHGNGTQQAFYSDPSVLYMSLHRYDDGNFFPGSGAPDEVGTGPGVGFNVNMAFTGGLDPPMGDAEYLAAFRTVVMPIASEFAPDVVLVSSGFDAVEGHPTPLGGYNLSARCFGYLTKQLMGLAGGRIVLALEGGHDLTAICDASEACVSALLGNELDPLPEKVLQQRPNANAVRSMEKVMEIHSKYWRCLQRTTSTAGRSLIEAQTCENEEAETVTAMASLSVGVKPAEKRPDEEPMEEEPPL

[12] = target: T1, Protein deacetylase HDAC6 (Homo sapiens, UniProt Q9UBN7); assay: Inhibition of recombinant human HDAC6 expressed in baculovirus expression system using KI-104 as substrate incubated for 3 hrs by fluorescence-based assay
T1 sequence (Q9UBN7 whole entry): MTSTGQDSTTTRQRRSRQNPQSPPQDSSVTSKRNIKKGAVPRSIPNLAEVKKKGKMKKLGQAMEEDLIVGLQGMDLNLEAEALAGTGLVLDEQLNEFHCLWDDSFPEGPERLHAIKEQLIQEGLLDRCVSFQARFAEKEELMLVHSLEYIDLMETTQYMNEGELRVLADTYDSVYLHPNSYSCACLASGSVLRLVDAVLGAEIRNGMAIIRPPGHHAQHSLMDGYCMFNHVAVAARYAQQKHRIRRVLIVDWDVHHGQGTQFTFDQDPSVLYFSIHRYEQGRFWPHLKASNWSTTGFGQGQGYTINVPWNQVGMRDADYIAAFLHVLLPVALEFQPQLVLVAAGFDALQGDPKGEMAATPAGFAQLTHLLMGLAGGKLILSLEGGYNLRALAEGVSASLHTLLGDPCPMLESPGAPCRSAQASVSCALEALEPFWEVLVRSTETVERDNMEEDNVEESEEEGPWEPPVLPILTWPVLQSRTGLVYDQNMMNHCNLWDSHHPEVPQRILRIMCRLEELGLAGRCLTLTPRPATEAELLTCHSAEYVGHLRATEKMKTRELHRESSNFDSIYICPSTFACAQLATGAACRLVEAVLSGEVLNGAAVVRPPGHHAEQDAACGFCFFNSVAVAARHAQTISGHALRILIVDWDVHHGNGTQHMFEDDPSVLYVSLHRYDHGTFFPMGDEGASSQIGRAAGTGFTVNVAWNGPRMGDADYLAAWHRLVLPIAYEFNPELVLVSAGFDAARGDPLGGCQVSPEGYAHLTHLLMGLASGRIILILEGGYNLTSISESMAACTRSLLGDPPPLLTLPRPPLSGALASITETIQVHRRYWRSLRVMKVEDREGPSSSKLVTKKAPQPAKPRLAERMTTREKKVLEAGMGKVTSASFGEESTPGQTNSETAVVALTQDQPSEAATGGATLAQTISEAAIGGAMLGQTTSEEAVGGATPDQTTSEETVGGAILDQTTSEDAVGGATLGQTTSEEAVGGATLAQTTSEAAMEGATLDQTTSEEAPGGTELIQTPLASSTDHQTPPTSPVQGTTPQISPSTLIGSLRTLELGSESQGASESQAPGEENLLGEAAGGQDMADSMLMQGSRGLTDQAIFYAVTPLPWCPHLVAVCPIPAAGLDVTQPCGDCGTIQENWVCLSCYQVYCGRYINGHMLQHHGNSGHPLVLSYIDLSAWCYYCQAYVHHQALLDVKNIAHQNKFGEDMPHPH

[13] = tested on: Human immunodeficiency virus 1; assay: Reactivation of HIV-1 latency in human U1 cells assessed as fold increase in p24 expression at 1 uM incubated for 24 hrs by western blot analysis; format: functional
[14] = tested on: Human immunodeficiency virus 1; assay: Reactivation of HIV-1 latency in human ACH-2 cells assessed as fold increase in p24 expression at 1 uM incubated for 24 hrs by western blot analysis; format: functional, ACH-2 cell line
[15] = tested on: Human immunodeficiency virus 1; assay: Reversal of HIV-1 latency in human ACH-2 cells assessed as increase in GFP positive cells incubated for 24 hrs by flow cytometry; format: functional, organism-based, ACH-2 cell line; conditions: Human immunodeficiency virus 1, ACH-2, 24 h
[16] = tested on: Human immunodeficiency virus 1; assay: Reversal of HIV-1 latency infected in human U1 cells assessed as fold increase in p24 expression level at 31.1 nM incubated for 48 hrs by ELISA; format: functional
[17] = tested on: Human immunodeficiency virus 1; assay: Reversal of HIV-1 latency infected in human U1 cells assessed as fold increase in p24 expression level at 15.6 nM incubated for 48 hrs by ELISA; format: functional
[18] = tested on: Human immunodeficiency virus 1; assay: Reversal of HIV-1 latency infected in human ACH-2 cells assessed as fold increase in p24 expression level at 31.1 nM incubated for 48 hrs by ELISA; format: functional, ACH-2 cell line
[19] = Inhibition of HIV-1 latency in human CD4+ve Th cells infected NL4.3-Luc virus assessed as p24 expression level incubated for 48 hrs by v450 dye based flow cytometry; format: functional, cell-based; conditions: Human immunodeficiency virus 1, CD4+ve Th
[20] = tested on: Human immunodeficiency virus 1; assay: Reversal of HIV-1 latency infected in human ACH-2 cells assessed as fold increase in p24 expression level at 15.6 nM incubated for 48 hrs by ELISA; format: functional, ACH-2 cell line
[21] = tested on: Human immunodeficiency virus 1; assay: Reactivation of HIV-1 latency infected in human Th17 cells assessed as increase in HIV production by measuring phosphorylated S175 CDK9 levels at 1 uM incubated for 96 hrs by flow cytometry; format: functional
[22] = tested on: Human immunodeficiency virus 1; assay: Reactivation of HIV-1 latency infected in human Th17 cells assessed as increase in HIV production by measuring phosphorylated S175 CDK9 levels at 10 nM incubated for 96 hrs by flow cytometry; format: functional
[23] = tested on: Human immunodeficiency virus 1; assay: Reversal of HIV-1 latency infected in human J-Lat Tat-GFP Clone A7 cells assessed as increase in GFP expressing cells at 100 nM incubated for 72 hrs by flow cytometry analysis relative to control; format: functional
[24] = tested on: Human immunodeficiency virus 1; assay: Reversal of HIV-1 latency infected in GFP-fused human J-Lat C11 cells assessed as increase in GFP expression at 2 uM incubated for 3 hrs by flow cytometry; format: functional

Compound: CC(C)=CC(=O)O[C@H]1C(C)=C[C@]23C(=O)[C@H](C=C(CO)[C@@H](O)[C@]12O)C1C(C[C@H]3C)C1(C)C (stereo not given in full)
pEC50 [1]: 7.24

pEC50 [1]: 8.39
pEC50 [5]: 8.45
Compound: CCCCCCCCCCCC(=O)OCC1=C[C@H]2C(=O)[C@]3(C=C(C)[C@H](OC(=O)CC(C)C(C)C)[C@@]3(O)[C@@H]1O)[C@H](C)CC1C2C1(C)C (stereo not given in full)
CC50 at 72 h [2]: 0.0942 µM
Activity [3]: 80%
CC50 at 72 h [4]: 0.0685 µM
Activity [6]: 90%

Compound: COc1cc2nc(N3CCCN(C)CC3)nc(NC3CCN(Cc4ccccc4)CC3)c2cc1OC
fold change (FC) [7]: 47
fold change (FC) [8]: 47

Compound: COc1cc(OC)c2c(=O)[nH]c(-c3cc(C)c(OCCO)c(C)c3)nc2c1 [APABETALONE]
Activity [9]: 75%

Compound: Nc1ncn([C@@H]2O[C@H](CO)[C@@H](O)[C@H]2O)c(=O)n1 [AZACITIDINE]
fold change (FC) [10]: 47

pEC50 [11]: 6.94
pEC50 [12]: 7.09
Compound: O=C(/C=C/c1cccc(S(=O)(=O)Nc2ccccc2)c1)NO [BELINOSTAT]

Compound: CC[C@@H]1C(=O)N(C)c2cnc(Nc3ccc(C(=O)NC4CCN(C)CC4)cc3OC)nc2N1C1CCCC1 [BI-2536]
fold change (FC) [13]: 177
fold change (FC) [14]: 261

Compound: CC(C)[C@H]1C(=O)N[C@H](CO)Cc2c[nH]c3cccc(c23)N1C [INDOLACTUM]
pEC50 [15]: 7.33

pEC50 [19]: 8.00
Compound: Cc1[nH]c2ccccc2c1CCNCc1ccc(/C=C/C(=O)NO)cc1 [PANOBINOSTAT]
fold change (FC) [16]: 19.9
fold change (FC) [17]: 12.8
fold change (FC) [18]: 51.8
fold change (FC) [20]: 27.7

Compound: CCN(c1cc(-c2ccc(CN3CCOCC3)cc2)cc(C(=O)NCc2c(C)cc(C)[nH]c2=O)c1C)C1CCOCC1 [TAZEMETOSTAT]
Activity [21]: 35%
Activity [22]: 25%

Compound: CC(/C=C/C(=O)NO)=C\[C@@H](C)C(=O)c1ccc(N(C)C)cc1 [TRICHOSTATIN]
Activity [23]: 21.3%

Compound: O=C(CCCCCCC(=O)Nc1ccccc1)NO [VORINOSTAT]
Activity [24]: 3.2%
